Test results: patent publication US20240101540A1, “TARGETED PROTEIN DEGRADATION OF PARP14 FOR USE IN THERAPY” (Ribon Therapeutics, Inc., priority 2022, published 2024)
Counter-ions that a name gives are not always drawn.

Target: T1, HiBiT tagged PARP14 (Homo sapiens, UniProt Q460N5)
T1 construct: engineered to contain a HiBiT tag on both alleles of the PARP14 gene; endogenous in cells; host or cells: Jurkat cells stably transfected with LgBiT (Promega), PARP14 locus edited by CRISPR/Cas9
Assay: HiBiT assay for the degradation of PARP14 (HiBiT tagged PARP14 in LgBiT expressing Jurkat cells, 2 or 24 hours)
Assay type: cell-based
Conditions: Assay B (Example B): HiBiT tagged PARP14 degradation in LgBiT expressing Jurkat cells, read-out: DC50
Outline: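 Jurkat cells stably expressing LgBiT with CRISPR knock-in of C-terminal HiBiT on both PARP14 alleles, 5,000 cells/well, treated with compound dose-response at 37 °C for 2 or 24 h. Live Cell Substrate luminescence normalised to 0.1% DMSO wells; DC50 from 4-parameter fit with floating top, bottom, Hill.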

T1 sequence (Q460N5 whole entry): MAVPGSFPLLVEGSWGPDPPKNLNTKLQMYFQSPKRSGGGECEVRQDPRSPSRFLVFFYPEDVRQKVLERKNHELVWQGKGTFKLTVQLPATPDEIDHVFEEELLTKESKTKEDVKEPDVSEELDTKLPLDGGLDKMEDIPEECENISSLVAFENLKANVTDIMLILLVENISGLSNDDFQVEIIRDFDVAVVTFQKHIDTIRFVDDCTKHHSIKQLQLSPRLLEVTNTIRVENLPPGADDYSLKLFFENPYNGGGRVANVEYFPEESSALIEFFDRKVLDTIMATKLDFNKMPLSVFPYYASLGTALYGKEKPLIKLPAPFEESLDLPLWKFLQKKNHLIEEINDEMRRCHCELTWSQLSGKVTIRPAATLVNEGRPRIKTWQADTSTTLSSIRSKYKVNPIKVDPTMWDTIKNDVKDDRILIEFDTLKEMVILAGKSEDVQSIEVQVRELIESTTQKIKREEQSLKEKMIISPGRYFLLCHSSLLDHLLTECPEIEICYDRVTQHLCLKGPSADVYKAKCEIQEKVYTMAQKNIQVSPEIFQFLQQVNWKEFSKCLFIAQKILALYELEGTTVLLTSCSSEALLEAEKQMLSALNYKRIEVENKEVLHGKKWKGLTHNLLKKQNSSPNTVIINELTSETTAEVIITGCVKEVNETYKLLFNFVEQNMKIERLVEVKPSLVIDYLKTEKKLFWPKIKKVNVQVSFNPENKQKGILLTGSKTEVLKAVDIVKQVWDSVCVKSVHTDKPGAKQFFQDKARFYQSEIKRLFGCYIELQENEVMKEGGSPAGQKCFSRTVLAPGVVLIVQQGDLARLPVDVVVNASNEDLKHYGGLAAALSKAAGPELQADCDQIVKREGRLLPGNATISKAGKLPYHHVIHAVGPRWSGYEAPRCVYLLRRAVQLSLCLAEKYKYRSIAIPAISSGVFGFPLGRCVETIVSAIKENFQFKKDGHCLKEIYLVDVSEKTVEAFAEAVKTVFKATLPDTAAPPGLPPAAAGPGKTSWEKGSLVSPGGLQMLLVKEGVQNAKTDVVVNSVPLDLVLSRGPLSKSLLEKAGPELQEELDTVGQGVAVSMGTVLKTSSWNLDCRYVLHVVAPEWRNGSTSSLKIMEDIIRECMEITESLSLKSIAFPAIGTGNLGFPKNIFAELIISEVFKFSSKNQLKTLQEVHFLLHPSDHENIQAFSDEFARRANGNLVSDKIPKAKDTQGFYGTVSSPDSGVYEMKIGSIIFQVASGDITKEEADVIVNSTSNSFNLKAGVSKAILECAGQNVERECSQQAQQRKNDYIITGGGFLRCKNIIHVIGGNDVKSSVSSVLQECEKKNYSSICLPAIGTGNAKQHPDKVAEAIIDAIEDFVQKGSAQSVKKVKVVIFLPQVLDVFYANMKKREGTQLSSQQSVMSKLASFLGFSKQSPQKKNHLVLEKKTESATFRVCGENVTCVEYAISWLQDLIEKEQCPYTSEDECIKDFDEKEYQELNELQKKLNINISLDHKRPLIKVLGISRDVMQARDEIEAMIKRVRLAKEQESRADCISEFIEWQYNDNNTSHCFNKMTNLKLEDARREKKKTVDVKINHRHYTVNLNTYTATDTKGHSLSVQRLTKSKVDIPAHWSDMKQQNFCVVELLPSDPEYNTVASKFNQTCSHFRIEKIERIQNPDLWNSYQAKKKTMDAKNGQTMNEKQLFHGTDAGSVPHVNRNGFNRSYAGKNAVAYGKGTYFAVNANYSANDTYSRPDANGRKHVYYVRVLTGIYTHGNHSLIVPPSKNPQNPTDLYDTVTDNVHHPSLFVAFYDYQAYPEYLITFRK

Compound | DC50
Cn1nc(N2CCC(=O)NC2=O)c2cc(F)c(N3CCN(CCN4CCC(COc5cc(F)c6c(=O)[nH]c(CSC7CCOCC7)nc6c5)CC4)CC3)cc21 [Example 212, 1-(5-fluoro-6-(4-(2-(4-(((5-fluoro-4-oxo-2-(((tetrahydro-2H-pyran-4-yl)thio)methyl)-3,4-dihydroquinazolin-7-yl)oxy)methyl)piperidin-1-yl)ethyl)piperazin-1-yl)-1-methyl-1H-indazol-3-yl)dihydropyrimidine-2,4(1H,3H)-dione] | < 30 nM
O=C1CCC(Nc2ccc(N3CCN(CC4CCN(CCOc5cc(F)c6c(=O)[nH]c(CSC7CCOCC7)nc6c5)CC4)CC3)c(F)c2)C(=O)N1 (centres unmarked) [Example 213, 3-((3-fluoro-4-(4-((1-(2-((5-fluoro-4-oxo-2-(((tetrahydro-2H-pyran-4-yl)thio)methyl)-3,4-dihydroquinazolin-7-yl)oxy)ethyl)piperidin-4-yl)methyl)piperazin-1-yl)phenyl)amino)piperidine-2,6-dione] | < 30 nM
O=C1CCC(Nc2ccc(N3CCC(N4CCC(N5CCC(COc6cc(F)c7c(=O)[nH]c(CSC8CCOCC8)nc7c6)CC5=O)CC4)CC3)c(F)c2)C(=O)N1 (centres unmarked) [Example 214, 3-((3-fluoro-4-(4-(((5-fluoro-4-oxo-2-(((tetrahydro-2H-pyran-4-yl)thio)methyl)-3,4-dihydroquinazolin-7-yl)oxy)methyl)-2-oxo-[1,4′:1′,4″-terpiperidin]-1″-yl)phenyl)amino)piperidine-2,6-dione formate] | < 30 nM
O=C1CCC(Nc2ccc(N3CCC4(CCN(CCOc5cc(F)c6c(=O)[nH]c(CSC7CCOCC7)nc6c5)CC4)CC3)c(F)c2)C(=O)N1 (centres unmarked) [Example 215, 3-((3-fluoro-4-(9-(2-((5-fluoro-4-oxo-2-(((tetrahydro-2H-pyran-4-yl)thio)methyl)-3,4-dihydroquinazolin-7-yl)oxy)ethyl)-3,9-diazaspiro[5.5]undecan-3-yl)phenyl)amino)piperidine-2,6-dione] | < 30 nM
O=C1CCC(Nc2ccc(N3CCN(CCN4CCC(COc5cc(F)c6c(=O)[nH]c(CCC7CCOCC7)nc6c5)CC4)CC3)cc2F)C(=O)N1 (centres unmarked) [Example 216, 3-((2-fluoro-4-(4-(2-(4-(((5-fluoro-4-oxo-2-(2-(tetrahydro-2H-pyran-4-yl)ethyl)-3,4-dihydroquinazolin-7-yl)oxy)methyl)piperidin-1-yl)ethyl)piperazin-1-yl)phenyl)amino)piperidine-2,6-dione] | < 30 nM
O=C1CCC(Nc2ccc(N3CCC(CN4CC(N5CCC(COc6cc(F)c7c(=O)[nH]c(CSC8CCOCC8)nc7c6)CC5)C4)CC3)c(F)c2)C(=O)N1 (centres unmarked) [Example 217, 3-((3-fluoro-4-(4-((3-(4-(((5-fluoro-4-oxo-2-(((tetrahydro-2H-pyran-4-yl)thio)methyl)-3,4-dihydroquinazolin-7-yl)oxy)methyl)piperidin-1-yl)azetidin-1-yl)methyl)piperidin-1-yl)phenyl)amino)piperidine-2,6-dione formate] | < 30 nM
O=C1CCC(Nc2cc(F)c(N3CCC(N4CC(N5CCC(COc6cc(F)c7c(=O)[nH]c(CSC8CCOCC8)nc7c6)CC5)C4)CC3)cc2F)C(=O)N1 (centres unmarked) [Example 218, 3-((2,5-difluoro-4-(4-(3-(4-(((5-fluoro-4-oxo-2-(((tetrahydro-2H-pyran-4-yl)thio)methyl)-3,4-dihydroquinazolin-7-yl)oxy)methyl)piperidin-1-yl)azetidin-1-yl)piperidin-1-yl)phenyl)amino)piperidine-2,6-dione] | < 30 nM
O=C1CCC(Nc2ccc(N3CCC(N4CCC(COc5cc(F)c6c(=O)[nH]c(CC7CC7)nc6c5)CC4)CC3)c(F)c2)C(=O)N1 (centres unmarked) [Example 219, 3-((4-(4-(((2-(cyclopropylmethyl)-5-fluoro-4-oxo-3,4-dihydroquinazolin-7-yl)oxy)methyl)-[1,4′-bipiperidin]-1′-yl)-3-fluorophenyl)amino)piperidine-2,6-dione formate] | < 30 nM
O=C1CCC(Nc2ccc(N3CCC(N4CC(N5CCC(COc6cc(F)c7c(=O)[nH]c(CSC8CCOCC8)nc7c6)CC5)C4)CC3)cc2F)C(=O)N1 (centres unmarked) [Example 221, 3-((2-fluoro-4-(4-(3-(4-(((5-fluoro-4-oxo-2-(((tetrahydro-2H-pyran-4-yl)thio)methyl)-3,4-dihydroquinazolin-7-yl)oxy)methyl)piperidin-1-yl)azetidin-1-yl)piperidin-1-yl)phenyl)amino)piperidine-2,6-dione formate] | < 30 nM
O=C1CCC(Nc2ccc(N3CCC(N4CCC(CN5CCC(COc6cc(F)c7c(=O)[nH]c(CSC8CCOCC8)nc7c6)CC5)CC4)CC3)c(F)c2)C(=O)N1 (centres unmarked) [Example 224, 3-((3-fluoro-4-(4-((4-(((5-fluoro-4-oxo-2-(((tetrahydro-2H-pyran-4-yl)thio)methyl)-3,4-dihydroquinazolin-7-yl)oxy)methyl)piperidin-1-yl)methyl)-[1,4′-bipiperidin]-1′-yl)phenyl)amino)piperidine-2,6-dione] | < 30 nM
O=C1CCC(Nc2ccc(N3CCN(CCN4CCC(C#Cc5cc(F)c6c(=O)[nH]c(CSC7CCOCC7)nc6c5)CC4)CC3)c(F)c2)C(=O)N1 (centres unmarked) [Example 226, 3-((3-fluoro-4-(4-(2-(4-((5-fluoro-4-oxo-2-(((tetrahydro-2H-pyran-4-yl)thio)methyl)-3,4-dihydroquinazolin-7-yl)ethynyl)piperidin-1-yl)ethyl)piperazin-1-yl)phenyl)amino)piperidine-2,6-dione formate] | < 30 nM
COc1cc(N2CCC(CN3CCC(COc4cc(F)c5c(=O)[nH]c(CSC6CCOCC6)nc5c4)CC3)CC2)c(F)cc1NC1CCC(=O)NC1=O (centres unmarked) [Example 229, 3-((5-fluoro-4-(4-((4-(((5-fluoro-4-oxo-2-(((tetrahydro-2H-pyran-4-yl)thio)methyl)-3,4-dihydroquinazolin-7-yl)oxy)methyl)piperidin-1-yl)methyl)piperidin-1-yl)-2-methoxyphenyl)amino)piperidine-2,6-dione] | < 30 nM

Continued, values first:

DC50 | Compound
< 30 nM | O=C1CCN(c2cncc3c(N4CCN(CCN5CCC(COc6cc(F)c7c(=O)[nH]c(CSC8CCOCC8)nc7c6)CC5)CC4)cccc23)C(=O)N1 [Example 210, 1-(8-(4-(2-(4-(((5-fluoro-4-oxo-2-(((tetrahydro-2H-pyran-4-yl)thio)methyl)-3,4-dihydroquinazolin-7-yl)oxy)methyl)piperidin-1-yl)ethyl)piperazin-1-yl)isoquinolin-4-yl)dihydropyrimidine-2,4(1H,3H)-dione]
< 30 nM | O=C1CCN(c2cnc3cc(C4CCN(CCN5CCC(COc6cc(F)c7c(=O)[nH]c(CSC8CCOCC8)nc7c6)CC5)CC4)ccn23)C(=O)N1 [Example 211, 1-(7-(1-(2-(4-(((5-fluoro-4-oxo-2-(((tetrahydro-2H-pyran-4-yl)thio)methyl)-3,4-dihydroquinazolin-7-yl)oxy)methyl)piperidin-1-yl)ethyl)piperidin-4-yl)imidazo[1,2-a]pyridin-3-yl)dihydropyrimidine-2,4(1H,3H)-dione]
< 30 nM | O=C1CCC(Nc2ccc(N3CCC(CN4CCC(C#Cc5cc(F)c6c(=O)[nH]c(CSC7CCOCC7)nc6c5)CC4)CC3)c(F)c2)C(=O)N1 (centres unmarked) [Example 220, 3-((3-fluoro-4-(4-((4-((5-fluoro-4-oxo-2-(((tetrahydro-2H-pyran-4-yl)thio)methyl)-3,4-dihydroquinazolin-7-yl)ethynyl)piperidin-1-yl)methyl)piperidin-1-yl)phenyl)amino)piperidine-2,6-dione formate]
< 30 nM | O=C1CCC(Nc2ccc(N3CCC(N4CCC(COc5cc(F)c6c(=O)[nH]c(CSC7CCOCC7)nc6c5)CC4)CC3)cc2F)C(=O)N1 (centres unmarked) [Example 222, 3-((2-fluoro-4-(4-(((5-fluoro-4-oxo-2-(((tetrahydro-2H-pyran-4-yl)thio)methyl)-3,4-dihydroquinazolin-7-yl)oxy)methyl)-[1,4′-bipiperidin]-1′-yl)phenyl)amino)piperidine-2,6-dione]
< 30 nM | O=C1CCC(Nc2ccc(N3CCC(N4CCC(CCOc5cc(F)c6c(=O)[nH]c(CSC7CCOCC7)nc6c5)CC4)CC3)c(F)c2)C(=O)N1 (centres unmarked) [Example 223, 3-((3-fluoro-4-(4-(2-((5-fluoro-4-oxo-2-(((tetrahydro-2H-pyran-4-yl)thio)methyl)-3,4-dihydroquinazolin-7-yl)oxy)ethyl)-[1,4′-bipiperidin]-1′-yl)phenyl)amino)piperidine-2,6-dione]
< 30 nM | O=C1CCC(Nc2ccc(N3CCC(N4CCC(C(=O)N5CCC(COc6cc(F)c7c(=O)[nH]c(CSC8CCOCC8)nc7c6)CC5)CC4)CC3)c(F)c2)C(=O)N1 (centres unmarked) [Example 225, 3-((3-fluoro-4-(4-(4-(((5-fluoro-4-oxo-2-(((tetrahydro-2H-pyran-4-yl)thio)methyl)-3,4-dihydroquinazolin-7-yl)oxy)methyl)piperidine-1-carbonyl)-[1,4′-bipiperidin]-1′-yl)phenyl)amino)piperidine-2,6-dione]
< 30 nM | O=C1CCC(Nc2ccc(N3CC4(CC(CN5CCC(COc6cc(F)c7c(=O)[nH]c(CSC8CCOCC8)nc7c6)CC5)C4)C3)c(F)c2)C(=O)N1 (centres unmarked) [Example 227, 3-((3-fluoro-4-(6-((4-(((5-fluoro-4-oxo-2-(((tetrahydro-2H-pyran-4-yl)thio)methyl)-3,4-dihydroquinazolin-7-yl)oxy)methyl)piperidin-1-yl)methyl)-2-azaspiro[3.3]heptan-2-yl)phenyl)amino)piperidine-2,6-dione formate]
< 30 nM | O=C1CCC(Nc2ccc(N3CCC(N4CCC(N5CCC(COc6cc(F)c7c(=O)[nH]c(CSC8CCOCC8)nc7c6)CC5)CC4)CC3)c(F)c2)C(=O)N1 (centres unmarked) [Example 228, 3-((3-fluoro-4-(4-(((5-fluoro-4-oxo-2-(((tetrahydro-2H-pyran-4-yl)thio)methyl)-3,4-dihydroquinazolin-7-yl)oxy)methyl)-[1,4′:1′,4″-terpiperidin]-1″-yl)phenyl)amino)piperidine-2,6-dione diformate]
